# Source: patent US7888527B2 (University of Virginia Patent Foundation, priority 2004, dated 2011)
# “Also recorded” adds a separate entry of the source.
# Experiments:
# human S1P3 receptor [1] = target: T1, human S1P3 receptor (Homo sapiens, UniProt Q99500); assay: [32P]S1P binding assay, HEK293T membranes; parameters: expressed in transfected cells; host or cells: HEK293T, transient transfection; membranes; conditions: read-out: pKi S1P3 (converted)
# Protocol: (§1) [^32P]-S1P was prepared by incubating sphingosine and [γ-^32P]ATP with cell lysate from HEK293T cells transiently transfected with human sphingosine kinase type 2 DNA. The 200 μl reaction contained 0.025 mM sphingosine, 1 mCi [γ-^32P]ATP (7000 Ci/mmol) and kinase buffer (in mM: Mg(C2H3O2)2 (in 50 mM Tris, pH 7.5)/10, NaF/10, and semicarbizide/2). The reaction was initiated by the addition of 20 μg of cell lysate and incubated at 37° C. for at least 30 minutes. […] The organic layer was isolated and the extraction procedure repeated two additional times with the remaining aqueous fraction. The combined organic fractions were dried under a stream of nitrogen gas and resuspended in aqueous 0.1% fatty acid free BSA.
# (§2) Bound ligand was separated from free ligand by rapid filtration and analyzed in a liquid scintillation counter.
# (§3) Statistical Analysis. The EC50 and IC50 values for all dose response curves were determined by nonlinear regression analysis of all data using the Graphpad Prism© program. The error associated with the data collected is reported as the standard error of the mean (S.E.M).
# human S1P1 receptor [2] = target: T2, human S1P1 receptor (Homo sapiens, UniProt P21453); assay: [32P]S1P binding assay, HEK293T membranes; parameters: expressed in transfected cells; host or cells: HEK293T, transient transfection; membranes; conditions: read-out: pKi S1P1 (converted)
# T2 sequence (P21453 whole entry): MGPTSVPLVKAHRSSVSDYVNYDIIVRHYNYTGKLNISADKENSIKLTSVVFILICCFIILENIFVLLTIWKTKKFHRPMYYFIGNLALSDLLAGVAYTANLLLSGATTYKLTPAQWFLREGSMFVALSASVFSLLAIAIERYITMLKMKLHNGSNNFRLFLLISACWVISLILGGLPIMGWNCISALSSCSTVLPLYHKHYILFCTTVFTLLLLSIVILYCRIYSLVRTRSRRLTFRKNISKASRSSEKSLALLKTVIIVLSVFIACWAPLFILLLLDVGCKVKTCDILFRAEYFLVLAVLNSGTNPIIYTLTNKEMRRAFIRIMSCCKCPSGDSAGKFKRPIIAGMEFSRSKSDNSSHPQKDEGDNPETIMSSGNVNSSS
# Protocol: as §1, §2, §3
# S1P2 receptor [3] = target: T3, S1P2 receptor (Homo sapiens, UniProt O95136); assay: [γ-35S]GTP binding assay, HEK293T membranes; assay type: biochemical
# T3 construct: expressed in transfected cells; host or cells: HEK293T, transient transfection; membranes
# T3 sequence (O95136 whole entry): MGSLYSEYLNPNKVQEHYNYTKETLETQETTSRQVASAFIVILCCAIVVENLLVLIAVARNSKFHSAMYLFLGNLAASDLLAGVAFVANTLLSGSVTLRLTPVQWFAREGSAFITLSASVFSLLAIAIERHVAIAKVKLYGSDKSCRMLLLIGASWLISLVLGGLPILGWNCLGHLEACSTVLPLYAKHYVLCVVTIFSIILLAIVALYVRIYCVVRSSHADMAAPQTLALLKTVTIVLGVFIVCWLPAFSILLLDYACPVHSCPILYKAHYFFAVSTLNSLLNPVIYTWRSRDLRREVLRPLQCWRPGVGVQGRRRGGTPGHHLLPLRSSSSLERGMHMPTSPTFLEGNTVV
# From the text: (§4) The appropriate receptor plasmid DNA (encoding human S1P1, human S1P2, human S1P3, human S1P4, human S1P5, human LPA1, human LPA2 or human LPA3 receptors) is mixed with equal amounts of expression plasmids encoding human Gi2α (for S1P3, a mutated (C352F) rat Gi2α is used), cow β1, and cow γ2 proteins, and these DNAs are used to transfect monolayers of HEK293T cells (where ‘T’ indicates expression of the SV-40 virus large T antigen) using the calcium phosphate precipitate method (7). After about 60 hours, cells are harvested, membranes prepared, aliquoted, and stored at −70° C. until use (8).
# (§5) The [γ-^35S]GTP binding assay is performed as described previously (8). Membranes containing 1-5 μg of protein are incubated in 0.1 ml of binding buffer (in mM: HEPES/50, NaCl/100, MgCl2/10, pH 7.5) containing 5 μg of saponin, 10 μM GDP, 0.1 nM [γ-^35S]GTP (1200 Ci/mmol), and indicated lipid(s) for 30 min at 30° C. and collected using a Brandel Cell Harvester (Gaithersburg, Md.). Samples are then analyzed for bound radionuclide.
# as §3
# human S1P1 receptor [4] = target: T2, human S1P1 receptor; assay: [γ-35S]GTP binding assay, HEK293T membranes (agonism and Schild antagonism); assay type: biochemical; parameters: expressed in transfected cells; host or cells: HEK293T, transient transfection; membranes
# From the text: as §4, §5
# (§6) Briefly, nonlinear analysis of the best-fit line generated by plotting the negative log of the EC50 values obtained from agonist dose-response curves, in the absence and presence of varying concentrations of antagonist, was plotted against the concentration of antagonist to give the Kb value.
# as §3
# [5] = test system: LPA1-3 EDG-family receptors; assay: Activity at LPA receptors; assay type: biochemical, human; conditions: concentrations up to 30 μM
# From the text: as §4, §5
# human S1P3 receptor [6] = target: T1, human S1P3 receptor; assay: Intracellular calcium mobilization, T24 cells transfected stably with human S1P3 receptor; assay type: cell-based; parameters: expressed in transfected cells
# Protocol: […] monolayers are co-transfected with the human S1P1, S1P2, S1P3 receptor encoding DNAs and the pIRESpuro2 plasmid DNA (Clontech, San Jose, Calif.,) using either Lipofectamine 2000 (Invitrogen, Carlsbad, Calif.) or FuGENE 6 (Roche Applied Science, Indianapolis, Ind.). Clonal populations expressing the puromycin acetyltransferase gene are selected by addition of puromycin (Sigma-Aldrich, St. Louis, Mo.) to the culture media. T24 cells are grown in monolayers at 37° C. in a 5% CO2/95% air atmosphere in growth media consisting of: 95% DMEM/F-12 medium and 10% charcoal/dextran stripped FBS.
# A FlexStation™ fluorimeter (Molecular Devices, Menlo Park, Calif.) was used to measure intracellular calcium in native T24 cells and T24 cells transfected stably with either human S1P2 or human S1P3 receptor DNA. Cells were seeded (˜50,000 cells/well) in 96-well, clear bottom black microplates (Corning Costar Corp.) and left overnight at 37° C. The cells were dye-loaded with 4 μM Fluo-4AM ester in a loading buffer (Hank's Balanced Salt Solution, […], containing 20 mM HEPES, 0.1% fatty acid free BSA, and 2.5 mM probenecid) for 30 minutes at 37° C. After washing cell monolayers three times with phosphate buffered saline, loading buffer was added and the cells exposed to sets of compounds for 3 minutes at 25° C. in the FlexStation™. In all cases, each concentration of every compound was tested in at least triplicate. […] The cells were washed with phosphate buffered saline and exposed to compounds immediately, as described above.
# as §6
# human S1P3 receptor [7] = target: T1, human S1P3 receptor; assay: [γ-35S]GTP binding assay, HEK293T membranes (agonism and Schild antagonism); assay type: biochemical; parameters: expressed in transfected cells; host or cells: HEK293T, transient transfection; membranes
# From the text: as §4, §5, §6, §3
# S1P2 receptor [8] = target: T3, S1P2 receptor; assay: [32P]S1P binding assay; conditions: concentrations up to 10 μM (data not shown)
# Protocol: as §1, §2
# [9] = VPC23019 concentrations greater than 100 nM
# [10] = [γ-35S]GTP binding, S1P with increasing VPC23019, Lew and Angus regression
# T1 sequence (Q99500 whole entry): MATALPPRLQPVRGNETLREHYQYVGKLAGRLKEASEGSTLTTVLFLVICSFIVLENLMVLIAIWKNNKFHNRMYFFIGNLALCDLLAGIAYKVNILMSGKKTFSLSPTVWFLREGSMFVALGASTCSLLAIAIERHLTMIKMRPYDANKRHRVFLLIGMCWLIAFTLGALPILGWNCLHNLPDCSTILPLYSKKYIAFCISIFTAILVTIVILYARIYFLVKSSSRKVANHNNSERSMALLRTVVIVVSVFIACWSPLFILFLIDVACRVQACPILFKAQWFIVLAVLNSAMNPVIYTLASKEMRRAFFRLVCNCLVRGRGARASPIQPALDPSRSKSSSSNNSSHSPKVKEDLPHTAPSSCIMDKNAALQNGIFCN
smiles,measurement,setting,value
CCCCCCCCc1cccc(NC(=O)[C@H](N)COP(=O)(O)O)c1 [VPC23019],Ki,human S1P3 receptor [1],1170 nM
same,Ki,human S1P1 receptor [2],13.8 nM
same,Activity at the S1P2 receptor,S1P2 receptor [3],devoid of agonist activity
same,EC50,"S1P2 receptor [3]; -log molar concentration giving 50% of maximal [γ-35S]GTP binding, ± S.E.M., read-out: pEC50 S1P2 (converted)",> 10 µM
same,Agonist or antagonist activity at the human S1P2 receptor,S1P2 receptor [3]; concentrations up to 10 micromolar,inactive as either an agonist or antagonist
same,Agonist activity at the S1P1 receptor,human S1P1 receptor [4],lacked agonist activity
same,pKb S1P1,"human S1P1 receptor [4]; Schild analysis (Lew and Angus) of S1P curves in [γ-35S]GTP binding, ± S.E.M.",7.49±0.16
same,Inverse agonism profile at S1P1,human S1P1 receptor [4]; [9],a profile suggesting inverse agonism
same,Antagonism of S1P at the S1P1 receptor,human S1P1 receptor [4]; [10],"dose-dependent, parallel rightward shift; also recorded: competitive antagonist"
same,Kb,human S1P1 receptor [4]; read-out: pKb S1P1 (converted),32.4 nM
same,Agonist efficacy class S1P1,human S1P1 receptor [4]; relative to S1P Emax,na (no agonist activity (<10% of S1P Emax))
same,Agonist activity at LPA1-3 receptors,[5],neither agonist activity
same,"Reversibility of antagonism after washout, Ca2+ mobilization",human S1P3 receptor [6]; 10000 nM VPC23019 pre-treatment followed by washout,recovered fully
same,Competitive behaviour in calcium mobilization assay (nonlinear regression),human S1P3 receptor [6]; T24-S1P3 cells,did not behave as a competitive antagonist
same,Calcium mobilization by compound alone,human S1P3 receptor [6]; T24-S1P3 cells versus wild-type T24 cells,not a result of stimulation of the S1P3 receptor
same,Agonist activity at the S1P3 receptor,human S1P3 receptor [7],lacked agonist activity
same,Inverse agonism profile at S1P3,human S1P3 receptor [7]; [9],a profile suggesting inverse agonism
same,Antagonism of S1P at the S1P3 receptor,human S1P3 receptor [7]; [10],"dose-dependent, parallel rightward shift; also recorded: competitive antagonist"
same,Kb,human S1P3 receptor [7]; read-out: pKb S1P3 (converted),1050 nM
same,Agonist efficacy class S1P3,human S1P3 receptor [7]; relative to S1P Emax,na (no agonist activity (<10% of S1P Emax))
same,Influence on binding of [32P]S1P to the S1P2 receptor,S1P2 receptor [8],did not influence the binding
